# Test results published in PubChem BioAssay (NCI).
#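 Grown in 96-well plates, cells were treated for 48 hours with each compound at five concentrations. Insufficient inhibition: endpoint recorded as highest concentration tested. TGI marks complete inhibition of growth.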
# How the values were obtained:
# Assay in all cases: NCI anticancer screen, dose series, 48 h
# OVCAR-5 ovarian = system: OVCAR-5 ovarian
# CAKI-1 renal = system: CAKI-1 renal
# T-47D breast = system: T-47D breast
# SNB-19 CNS = system: SNB-19 CNS
# MDA-MB-435 = system: MDA-MB-435
# SF-539 CNS = system: SF-539 CNS
# RXF 393 renal = system: RXF 393 renal
# M14 melanoma = system: M14 melanoma
# LOX IMVI melanoma = system: LOX IMVI melanoma
# NCI-H23 lung = system: NCI-H23 lung
Structure (SMILES),TGI (OVCAR-5 ovarian) [µM],TGI (CAKI-1 renal) [µM],TGI (T-47D breast) [µM],TGI (SNB-19 CNS) [µM],TGI (MDA-MB-435) [µM],TGI (SF-539 CNS) [µM],TGI (RXF 393 renal) [µM],TGI (M14 melanoma) [µM],TGI (LOX IMVI melanoma) [µM],TGI (NCI-H23 lung) [µM]
OCC(O)C(O)C(O)C(/C=N\Nc1ncnc2ccc(Br)cc12)=N/Nc1ncnc2ccc(Br)cc12 (stereo not drawn),> 100,> 100,> 100,> 100,> 100,> 100,> 100,71.2,> 100,–
c1ccc(C2=C(c3ccccc3)P(c3ccccc3)C2)cc1 (stereo not drawn),> 100,> 100,> 100,–,> 100,> 100,> 100,> 100,–,–
CC(C)(C)OC(=O)NCC(=O)N1CCCN(C(=O)CNC(=O)OC(C)(C)C)CC1,> 100,> 100,> 100,> 100,> 100,–,> 100,> 100,> 100,> 100
CC(=O)Nc1ccc(-c2nnc(SCC(=O)Nc3ccccc3C)o2)cc1,> 100,–,–,–,–,> 100,> 100,> 100,> 100,> 100
COc1cc(CNc2nc3cc(C(F)(F)F)ccc3nc2C)cc(OC)c1OC,–,96.4,40.4,> 100,55.5,62.2,44.7,30.8,27.8,76.1
O=C1C[C@H](c2ccccc2)C2(C(=O)c3ccccc3C2=O)[C@H](c2ccccc2)C1,> 100,> 100,> 100,> 100,> 100,–,50.5,> 100,–,> 100
c1ccc(Nc2nnc(-c3nsc4ccccc34)o2)cc1,> 100,–,–,> 100,–,> 100,> 100,> 100,> 100,> 100
COc1cc(C(SCc2ccccc2)SCc2ccccc2)ccc1O,–,> 10,> 10,> 10,–,> 10,> 10,> 10,> 10,–
O=C(O)/C=C/C(=O)O,> 100,> 100,> 100,> 100,> 100,> 100,–,> 100,> 100,> 100
O=C(C#Cc1cn(C2CC(O)C(CO)O2)c(=O)[nH]c1=O)c1ccccc1 (stereo not drawn),–,> 100,36.7,> 100,> 100,52.5,52.7,> 100,> 100,> 100
CCC(C)C1(O)OC2CC3(C)OC(=CC3=O)/C(C)=C\C3OC(=O)C1(C)C32 (stereo not drawn),> 100,31.5,33.7,77.5,> 100,> 100,–,> 100,49.4,24.7
COc1ccc(C2c3cc4c(cc3OC(N3CCCCC3)C2C)OCO4)cc1 (stereo not drawn),> 100,84.9,> 100,> 100,> 100,> 100,–,> 100,> 100,> 100
